Here are results for 16 molecules from patent publication US20220056019A1, “FARNESOID X RECEPTOR AGONISTS AND USES THEREOF” (Metacrine, Inc., priority 2018, published 2022).

Where only a bound is given, the exact number is not on record here.

The assay addresses T1, hFXR (Homo sapiens, UniProt Q96RI1).
T1 construct: expressed in transfected cells; host or cells: CV-1 cells
T1 sequence (Q96RI1 1-486): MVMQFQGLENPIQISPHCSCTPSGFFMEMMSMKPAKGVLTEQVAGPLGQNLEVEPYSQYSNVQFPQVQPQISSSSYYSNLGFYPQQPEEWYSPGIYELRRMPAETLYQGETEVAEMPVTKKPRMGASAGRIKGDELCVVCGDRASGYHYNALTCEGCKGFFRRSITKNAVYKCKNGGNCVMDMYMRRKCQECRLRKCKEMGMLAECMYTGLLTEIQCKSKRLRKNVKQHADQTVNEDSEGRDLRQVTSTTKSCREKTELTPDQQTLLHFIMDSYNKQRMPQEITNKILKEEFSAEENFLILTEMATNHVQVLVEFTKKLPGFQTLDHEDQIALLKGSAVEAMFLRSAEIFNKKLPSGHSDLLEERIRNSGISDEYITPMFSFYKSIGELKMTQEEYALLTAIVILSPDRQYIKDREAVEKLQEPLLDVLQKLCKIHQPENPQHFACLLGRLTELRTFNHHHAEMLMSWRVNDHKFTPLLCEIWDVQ
T1 sequence (P19793 1-462 partner): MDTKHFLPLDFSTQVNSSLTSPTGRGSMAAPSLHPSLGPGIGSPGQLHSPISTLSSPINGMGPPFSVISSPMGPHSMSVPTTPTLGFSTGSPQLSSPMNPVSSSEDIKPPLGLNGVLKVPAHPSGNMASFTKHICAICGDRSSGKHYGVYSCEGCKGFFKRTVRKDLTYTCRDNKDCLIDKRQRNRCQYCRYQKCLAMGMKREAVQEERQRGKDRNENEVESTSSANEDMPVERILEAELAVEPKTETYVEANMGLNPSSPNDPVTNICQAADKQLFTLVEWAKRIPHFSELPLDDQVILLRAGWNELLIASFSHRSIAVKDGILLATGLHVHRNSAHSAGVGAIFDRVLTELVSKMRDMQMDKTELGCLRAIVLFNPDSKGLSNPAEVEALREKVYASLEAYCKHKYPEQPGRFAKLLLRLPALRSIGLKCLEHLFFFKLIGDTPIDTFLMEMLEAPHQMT
The assay is described as follows: In Vitro FXR Assay (TK): TK-ECRE-luc reporter in transfected CV-1 cells. The class given is cell-based. The settings on record: 18 hrs incubation, luminescence. How it is done:
Example B-1: In Vitro FXR Assay (TK)
CV-1 cells were seeded at a density of 2,000,000 cells in a T175 flask with DMEM+10% charcoal double-stripped FBS and incubated at 37° C. in 5% CO2 for 18 h (O/N).
After 18 h of incubation, the medium in the T175 flask was changed with fresh DMEM+10% charcoal super-stripped serum. In a polypropylene tube, 2500 μL OptiMEM (Life Technologies, Cat #31985-062) was combined with expression plasmids for hFXR, hRXR, TK-ECRE-luc and pCMX-YFP. The tube was then briefly vortexed and incubated at room temperature for 5 minutes. Transfection reagent (X-tremeGENE HP from Roche, Cat #06 366 236 001) was added to the OptiMEM/plasmid mixture vortexed and incubated at room temperature for 20 minutes. Following incubation, the transfection reagent/DNA mixture complex was added to cells in the T175 flask and the cells were incubated at 37° C. in 5% CO2 for 18 h (O/N).
Compounds were serially diluted in DMSO and added to transfected CV-1 cells. The cells were then incubated for 18 hrs. The next day cells were lysed and examined for luminescence.
`CCS(=O)(=O)NC[C@H]1CC[C@H](C(=O)N(C[C@H]2CC[C@H](c3ccc(OC)c(C)c3)CC2)c2cccc(-c3cnn(C(C)C)c3)c2)CC1` [Compound 12, (trans)-4-(Ethylsulfonamidomethyl)-N-(3-(1-isopropyl-1H-pyrazol-4-yl)phenyl)-N-(((trans)-4-(4-methoxy-3-methylphenyl)cyclohexyl)methyl)cyclohexanecarboxamide]: the EC50 is no more than 0.05 µM.
`COc1ccc(C23CCC(CN(c4cc(-c5noc(C(C)C)n5)ccn4)C(=O)[C@H]4CC[C@H](OC(=O)N5CC(O)C5)CC4)(CC2)CC3)cc1C` [Compound 26.14, 4-((4-(5-Isopropyl-1,2,4-oxadiazol-3-yl)pyridin-2-yl)((4-(4-methoxy-3-methylphenyl)bicyclo[2.2.2]octan-1-yl)methyl)carbamoyl)cyclohexyl trans-3-hydroxyazetidine-1-carboxylate]: the concentration giving a half-maximal response (EC50) was no more than 0.05 µM.
`COc1ccc([C@H]2CC[C@H](CN(c3cc(-c4cnn(C(C)C)c4)ccn3)C(=O)[C@H]3CC[C@H](CO)CC3)CC2)cc1C` [Compound 17, (trans)-4-(Hydroxymethyl)-N-(4-(1-isopropyl-1H-pyrazol-4-yl)pyridin-2-yl)-N-(((trans)-4-(4-methoxy-3-methylphenyl)cyclohexyl)methyl)cy-clohexanecarboxamide] showed an EC50 of no more than 0.05 µM.
Next, `COc1ccc([C@H]2CC[C@H](CN(c3cc(-c4cnn(C(C)C)c4)ccn3)C(=O)[C@H]3CC[C@H](OC(=O)N4CCN(C)CC4)CC3)CC2)cc1C` [Compound 2.14, trans-4-((4-(1-Isopropyl-1H-pyrazol-4-yl)pyridin-2-yl)(((trans)-4-(4-methoxy-3-methylphenyl)cyclohexyl)methyl)carbamoyl) cyclohexyl4-methylpiperazine-1-carboxylate]: no more than 0.05 µM.
As for `COc1ccc([C@H]2CC[C@H](CN(c3cc(-c4cnn(C(C)C)c4)ccn3)C(=O)[C@H]3CC[C@H](OC(=O)NC(CF)CF)CC3)CC2)cc1C` [Compound 2.35, trans-4-((4-(1-Isopropyl-1H-pyrazol-4-yl)pyridin-2-yl)(((trans)-4-(4-methoxy-3-methylphenyl)cyclohexyl)methyl)carbamoyl) cyclohexyl(1,3-difluoropropan-2-yl) carbamate], the concentration giving a half-maximal response (EC50) is no more than 0.05 µM.
For the molecule `COCCN(C)C(=O)O[C@H]1CC[C@H](C(=O)N(CC23CCC(c4ccc(OC)c(C)c4)(CC2)CC3)c2cc(-c3cnn(C(C)C)c3)ccn2)CC1` [Compound 4.56, 4-((4-(1-Isopropyl-1H-pyrazol-4-yl)pyridin-2-yl) ((4-(4-methoxy-3-methylphenyl)bicyclo [2.2.2]octan-1-yl)methyl)carbamoyl)cyclohexyl (2-methoxyethyl)(methyl) trans-carbamate], the EC50 was no more than 0.05 µM.
`COc1ccc(C23CCC(CN(c4cc(-n5cnc(C(C)C)c5)ccn4)C(=O)[C@H]4CC[C@H](OC(=O)N5CC(O)C5)CC4)(CC2)CC3)cc1C` [Compound 23.13, 4-((4-(4-Isopropyl-1H-imidazol-1-yl)pyridin-2-yl)((4-(4-methoxy-3-methylphenyl)bicyclo[2.2.2]octan-1-yl)methyl)carbamoyl)cyclohexyl trans-3-hydroxyazetidine-1-carboxylate] showed an EC50 of no more than 0.05 µM.
With `COc1ccc([C@H]2CC[C@H](CN(c3cccc(-c4cnn(C(C)C)c4)c3)C(=O)[C@H]3CC[C@H](NC(=O)CC4CCOCC4)CC3)CC2)cc1C` [Compound 10.03, trans-N-(3-(1-Isopropyl-1H-pyrazol-4-yl)phenyl)-N-((trans-4-(4-methoxy-3-methylphenyl)cyclohexyl)methyl)-4-(2-(tetrahydro-2H-pyran-4-yl)acetamido)cyclohexanecarboxa-mide] the figure was 0.05 to 1 µM.
As for `CCn1cc(-c2ccnc(N(C[C@H]3CC[C@H](c4ccc(OC)c(C)c4)CC3)C(=O)[C@H]3CC[C@H](OC(=O)N4CC(O)C4)CC3)c2)cn1` [Compound 2.22, trans-4-((4-(1-Ethyl-1H-pyrazol-4-yl)pyridin-2-yl) ((trans-4-(4-methoxy-3-methylphenyl)cyclohexyl)methyl)carbamoyl) cyclohexyl3-hydroxyazetidine-1-carboxylate], the EC50 was no more than 0.05 µM.
In turn, `COc1ccc(C23CCC(CN(c4cc(-c5cnn(C(C)C)c5)ccn4)C(=O)[C@H]4CC[C@H](OC(=O)N5CC(OC(C)C)C5)CC4)(CC2)CC3)cc1C` [Compound 23.11, 4-((4-(1-Isopropyl-1H-pyrazol-4-yl)pyridin-2-yl)((4-(4-methoxy-3-methylphenyl)bicyclo[2.2.2]octan-1-yl)methyl)carbamoyl)(trans-cyclohexyl) 3-isopropoxy-azetidine-1-carboxylate] displayed an EC50 of no more than 0.05 µM.
Molecule `COc1ccc([C@H]2CC[C@H](CN(c3cc(-c4coc(C(C)C)n4)ccn3)C(=O)[C@H]3CC[C@H](OC(=O)NCC(C)(C)CO)CC3)CC2)nc1C` [Compound 1.01, trans-4-((4-(2-Isopropyloxazol-4-yl)pyridin-2-yl)((trans-4-(5-methoxy-6-methylpyridin-2-yl)cyclohexyl)methyl)carbamoyl) cyclohexyl (3-hydroxy-2,2-dimethylpropyl)carbamate] yielded an EC50 of 0.05 to 1 µM.
In turn, `COc1ccc([C@H]2CC[C@H](CN(c3cc(-c4cnc(N(C)C)nc4)ccn3)C(=O)[C@H]3CC[C@H](OC(=O)N4CC(O)C4)CC3)CC2)cc1C` [Compound 3.01, trans-4-((4-(2-(Dimethylamino)pyrimidin-5-yl)pyridin-2-yl)((trans-4-(4-methoxy-3-methylphenyl)cyclohexyl)methyl)carbamoyl) cyclohexyl 3-hydroxyazetidine-1-carboxylate] returned an EC50 of no more than 0.05 µM.
Regarding `COc1ccc(C23CCC(CN(c4cc(-c5cnn(C(C)C)c5)ccn4)C(=O)[C@H]4CC[C@H](OC(=O)N5CC(C)C5)CC4)(CC2)CC3)cc1C` [Compound 4.53, 4-((4-(1-Isopropyl-1H-pyrazol-4-yl)pyridin-2-yl) ((4-(4-methoxy-3-methylphenyl)bicyclo [2.2.2]octan-1-yl)methyl)carbamoyl)cyclohexyl trans-3-methylazetidine-1-carboxylate], the EC50 was no more than 0.05 µM.
In turn, `COC(=O)CCC(=O)N[C@H]1CC[C@H](C(=O)N(C[C@H]2CC[C@H](c3ccc(OC)c(C)c3)CC2)c2cccc(-c3cnn(C(C)C)c3)c2)CC1` [Compound 10.04, Methyl 4-((trans-4-((3-(1-isopropyl-1H-pyrazol-4-yl)phenyl)((trans-4-(4-methoxy-3-methylphenyl)cyclohexyl)methyl)carbamoyl)cyclohexyl)amino)-4-oxobutanoate] registered a 50% effective concentration (EC50) of 0.05 to 1 µM.
Turning to `COc1ccc([C@H]2CC[C@H](CN(c3cccc(-c4cnn(C(C)C)c4)c3)C(=O)[C@H]3CC[C@H](NC(=O)OC4CCOCC4)CC3)CC2)cc1C` [Compound 6.06, Tetrahydro-2H-pyran-4-yl (trans-4-((3-(1-isopropyl-1H-pyrazol-4-yl)phenyl)((trans-4-(4-methoxy-3-methylphenyl)cyclohexyl)meth-yl)carbamoyl)cyclohexyl)carbamate], the EC50 was no more than 0.05 µM.
The molecule `COc1ccc([C@H]2CC[C@H](CN(c3cccc(-c4cnn(C(C)C)c4)c3)C(=O)[C@H]3CC[C@H](OC(=O)NC[C@H](F)CO)CC3)CC2)cc1C` [Compound 5.07, trans-4-((3-(1-Isopropyl-1H-pyrazol-4-yl)phenyl)(((trans)-4-(4-methoxy-3-methylphenyl)cyclohexyl)methyl)carbamoyl)cyclohexyl ((S)-2-fluoro-3-hydroxypropyl) carbamate] showed an EC50 of no more than 0.05 µM.

As usually defined, the EC50 is the concentration that produces a half-maximal response. Lower therefore signals an effect from little substance.
